The values below come from patent EP1246814B1, “COMPOUNDS AND METHODS FOR MODULATION OF ESTROGEN RECEPTORS” (SIGNAL PHARMACEUTICALS, INC., priority 1999, dated 2001).

One data set relates to U2OS IL-6 ER-Minus. Nature of the data set: IL-6 production in ER-minus U2OS osteosarcoma cells. The class given is cell-based. The conditions noted are these: Homo sapiens.
In another data set the target is T1, human recombinant ER-α (Homo sapiens, UniProt P03372).
T1 sequence (P03372 1-595): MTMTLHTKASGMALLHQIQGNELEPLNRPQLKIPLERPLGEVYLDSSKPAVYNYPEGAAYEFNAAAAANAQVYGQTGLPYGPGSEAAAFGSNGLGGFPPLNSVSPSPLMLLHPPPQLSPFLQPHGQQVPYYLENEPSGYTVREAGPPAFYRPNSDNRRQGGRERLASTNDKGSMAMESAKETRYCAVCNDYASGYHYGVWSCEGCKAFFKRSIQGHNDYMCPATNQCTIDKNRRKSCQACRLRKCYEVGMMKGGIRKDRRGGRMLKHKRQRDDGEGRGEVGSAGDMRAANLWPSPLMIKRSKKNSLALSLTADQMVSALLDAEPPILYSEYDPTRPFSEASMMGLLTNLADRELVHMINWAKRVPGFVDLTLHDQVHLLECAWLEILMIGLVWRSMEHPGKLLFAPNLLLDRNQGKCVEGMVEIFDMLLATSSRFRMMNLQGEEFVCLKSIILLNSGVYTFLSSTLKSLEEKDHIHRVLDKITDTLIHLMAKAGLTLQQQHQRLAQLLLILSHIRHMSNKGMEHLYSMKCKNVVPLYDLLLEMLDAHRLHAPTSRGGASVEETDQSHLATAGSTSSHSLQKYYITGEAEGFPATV
Nature of the data set: Solid phase ER binding assay (3H-estradiol competition), ER-α.

The next data set concerns the target T2, human full-length ER-β (Homo sapiens, UniProt Q92731).
T2 construct: expression vectors for human full-length ER-α or ER-β; expressed in transfected cells
Nature of the data set: IL-6 production in U2OS osteosarcoma cells stably transfected with ER-β. It counts as cell-based. The conditions noted are these: for ER subtype specificity (ER-β versus ER-α): comparison of the U2OS IL-6 IC50 values of Table 4. How it is done: (§1) Human U2OS osteosarcoma cells (ATCC) were stably transfected with expression vectors for human full-length ER-α or ER-β, respectively, using standard molecular biology techniques. Stable subclones were generated that expressed high levels of ER-α or ER-β mRNA. The expression of ER-α and ER-β was confirmed using RNase protection analysis.
(§2) Cells were plated into 96-well plates at a density of 8000 cells per well in phenol red-free media with charcoal-stripped fetal calf serum. Twenty-four hours later, cells were either treated with vehicle (0.2% DMSO) or test compound at the concentrations indicated (in 0.2% DMSO). Thirty minutes later cells were stimulated with 10 ng/ml IL-1β and 10 ng/ml TNF-α. Twenty-four hours later the media supernatant was analyzed for cytokine production (IL-6) using commercially available ELISA kits following the manufacturer's instructions. Cytokine production in the presence of vehicle (0.2% DMSO) was set to 100%.

A further data set deals with T3, human full-length ER-α (Homo sapiens, UniProt P03372).
T3 construct: expression vectors for human full-length ER-α or ER-β; expressed in transfected cells
T3 sequence (P03372 1-595): T1 sequence (P03372 1-595)
The data set is described as follows: IL-6 production in U2OS osteosarcoma cells stably transfected with ER-α. The class given is cell-based. How it is done:
as §1, §2

The test system of a further data set is IL-6. Nature of the data set: Human bone cell co-culture system, IL-6 production. The class given is cell-based. The conditions noted are these: for IC50: human bone co-culture system of Example 12. How it is done:
(§3) The generation of osteoblastic cells from normal adult femoral travecular bone from patients without evidence of metabolic bone disease was carried out as previously described (Kung Sutherland et al., Osteoporosis International 5:335-343, 1995; Wong et al., J Bone Miner 5:803-813, 1990). Bone fragments were cleaned of adherent tissue and blood and cultured for 4 weeks in medium containing Ham's F12 supplemented with 28 mM HEPES, pH 7.4, 10% FCS, 1.1 mM CaCl2, 2 mM glutamine, and 1% antibiotic-antimycotic agent. Upon confluency, the cells were harvested and immortalized using a retroviral vector (pLXSN) containing the neomycin resistance gene and the human papillomaviral (HPV18) E6 and E7 concogenes (International Journal of Oncology 6:167-174, 1995). The immortalized osteoblastic cells were selected in medium containing G418 (600 µg/ml).
(§4) The human U937 moncytic cell line (cloned from the commercially available cells by serial dilution) was maintained in RPMI 1640 medium containing 10% FCS and 1% antibiotic-antimycotic agent.
The co-culture system was established as follows. Human osteoblastic cells were plated in 96-well dishes at a density of 5 x 10^3 cells/well. U937 cells in RPMI medium (5 x 10^4 cells/well) were layered over the osteoblasts. The formation of osteoclast-like cells was induced with 100 nM PMA. To determine the effects of compounds or the neutralizing antibodies to IL-6 (Sigma) and GM-CSF (Pharmingen) on the formation of osteoclast-like cells, the compounds or the antibodies were added 30 minutes prior to the addition of PMA. The cultures were stopped after 96 hrs and processed for histochemical or immunohistochemical analyses.

A further data set has as its system GM-CSF. The data set is described as follows: Human bone cell co-culture system, GM-CSF production. It counts as cell-based. How it is done: as §3, §4
The co-culture system was established as follows. Human osteoblastic cells were plated in 96-well dishes at a density of 5 x 10^3 cells/well. U937 cells in RPMI medium (5 x 10^4 cells/well) were layered over the osteoblasts. The formation of osteoclast-like cells was induced with 100 nM PMA. […]

Data set [1] is described as follows: 3-day immature rat uterine bioassay. The conditions noted are these: s.c. administration.
In a further data set the target is human recombinant ER-β (Homo sapiens, UniProt Q92731). The data set is described as follows: Solid phase ER binding assay (3H-estradiol competition), ER-β. The settings on record: ER binding assay of Example 18.
Data set [2] is described as follows: 28-day uterine bioassay in ovariectomized rats. It counts as in vivo.
[3] abbreviates: ER binding assay of Example 18, read-out: ER Binding Assay ER-α (Ki).

Counter-ions that a name gives are not always drawn. Like-named read-outs stand apart in the source and are kept apart here.

T2 sequence (Q92731 whole entry): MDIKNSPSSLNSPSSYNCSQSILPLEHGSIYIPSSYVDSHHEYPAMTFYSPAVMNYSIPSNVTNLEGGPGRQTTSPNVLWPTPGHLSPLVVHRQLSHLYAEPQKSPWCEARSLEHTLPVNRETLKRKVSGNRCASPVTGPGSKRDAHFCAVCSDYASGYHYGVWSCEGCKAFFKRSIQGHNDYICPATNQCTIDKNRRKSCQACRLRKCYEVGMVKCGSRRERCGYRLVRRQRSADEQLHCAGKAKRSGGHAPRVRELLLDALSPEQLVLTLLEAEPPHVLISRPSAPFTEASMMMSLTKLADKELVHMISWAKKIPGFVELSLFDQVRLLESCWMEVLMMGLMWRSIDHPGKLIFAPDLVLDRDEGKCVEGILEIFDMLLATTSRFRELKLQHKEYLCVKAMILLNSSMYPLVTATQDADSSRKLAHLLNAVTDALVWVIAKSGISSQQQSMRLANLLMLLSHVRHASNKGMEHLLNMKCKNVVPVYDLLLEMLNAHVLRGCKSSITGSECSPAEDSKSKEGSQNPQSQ
Sequence of human recombinant ER-β (Q92731 whole entry): as above

One may read the IC50 as the point on the concentration scale where inhibition reaches its midpoint. Compound `CCC(=C(c1ccc(O)cc1)c1ccc(OCCN(C)C)cc1)c1ccccc1` [4-Hydroxy-Tamoxifen] came in with an IC50 with U2OS IL-6 ER-Minus above 1 µM.
The term Ki denotes the equilibrium dissociation constant of an inhibitor or competing ligand from its target. Consider `CCN(CC)CCOc1ccc(-c2c(-c3ccccc3)c(=O)oc3ccccc23)cc1` ["L-20", reference compound], for which the Ki on human recombinant ER-α (setting [3]) was above 10000 nM. Besides, the IC50 against human full-length ER-β, on human full-length ER-α, in the data set on IL-6 (read-out: IL-6 Activity (IC50)) and with U2OS IL-6 ER-Minus was above 1 µM throughout.
Consider `O=c1oc2cc(O)ccc2c(Cc2ccc(OCCN3CCCCC3)cc2)c1-c1ccccc1` [Compound No. 1, 3-PHENYL-4-[4-(2-{PIPERIDIN-1-YL})ETHOXY]-BENZYL-7-HYDROXYCOUMARIN], for which the Ki on human recombinant ER-α (read-out: Solid Phase ER Binding Ki (nM) ER-α, ER-α 15 nM, 30 nM 3H-estradiol, room temperature, average of at least 3 experiments) worked out at 1.4 nM. Moreover, the IC50 in the data set with GM-CSF (human bone co-culture system of Example 12, read-out: IC50 with respect to GM-CSF) stood at 0.038 µM; in the data set on IL-6 (read-out: IC50 with respect to IL-6), 0.01 µM. Further, the “increase in uterine weight” value in [1] (not statistically different from vehicle (PEG-400)) is recorded as around 30%.
`CCN(CC)CCOc1ccc(-c2c(-c3ccccc3)c(=O)oc3cc(O)ccc23)cc1` [Compound No. 38]: the inhibition constant Ki on human recombinant ER-α (setting [3]) was determined as 690 nM; on human recombinant ER-β, 1.56 µM. For the same compound, the IC50 against human full-length ER-β was 0.165 µM; at human full-length ER-α, above 1 µM; in the data set on IL-6 (read-out: IL-6 Activity (IC50)) it was 0.175 µM; with U2OS IL-6 ER-Minus, above 10 µM. Besides, the “ER subtype specificity (ER-β versus ER-α)” value at human full-length ER-β is listed as “specificity for ER-β over ER-α”.
On to `C[C@]12CC[C@@H]3c4ccc(O)cc4CC[C@H]3[C@@H]1CC[C@@H]2O` [Estradiol, 17β-estradiol], for which the “production of GM-CSF” value in the data set with GM-CSF (co-culture system) is on record as “reduced the production of GM-CSF”. Besides, the “increase in uterine weight” value in data set [1] was 4.5 fold; in data set [2] (ovariectomized rats, 28-day, daily s.c. injection) it was 550%. In the data set on IL-6 (co-culture system), the “production of IL-6” value was “suppress the production of IL-6”. Also, in the data set with U2OS IL-6 ER-Minus, the IC50 is above 1 µM.
In the case of `O=C(c1ccc(OCCN2CCCCC2)cc1)c1c(-c2ccc(O)cc2)sc2cc(O)ccc12` [Raloxifene HCl, Raloxifene Hydrochloride], the “increase in uterine weight” value in data set [1] (1mg/kg dose) is recorded as “up to 50%”; in data set [2] (female, rat, in vivo, sc, 28 day) it was around 70%. In the data set on U2OS IL-6 ER-Minus, this compound showed an IC50 above 1 µM.
As to `O=c1oc2cc(O)ccc2c(-c2ccc(OCCN3CCCCC3)cc2)c1-c1ccc(Cl)cc1` [compound 16], the values for the IC50 against human full-length ER-β, at human full-length ER-α and in the data set with U2OS IL-6 ER-Minus were 0.051 µM, 0.325 µM and above 1 µM, respectively. Also, the “ER subtype specificity (ER-β versus ER-α)” value on human full-length ER-β is reported as “specificity for ER-β over ER-α”.
